What was measured:
Test in all cases: relative viability (nuclei count vs DMSO), 5 days (fraction); higher = more cells survive
[1] = compound: C1=CC2=C(C=C(C(=C2N=C1)O)N=NC3=CC4=C(C=C3)C=C(C=C4)S(=O)(=O)O)S(=O)(=O)O + O=C(CCCCCCC(=O)Nc1ccccc1)NO [Vorinostat] (partner 1 µM)
Outline: (§1)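 Each reported value is a median over duplicate plates. It expresses relative viability: treated-well nuclei count divided by vehicle-well nuclei count. Lung cancer cell lines in 1536-well plates were dosed by pin tool a day after seeding, alone with one drug or with a fixed anchor-drug dose plus five library-drug doses (not always all listed) in √10 steps, and nuclei were counted after 5 days.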

[2] = compound: C1=CC2=C(C=C(C(=C2N=C1)O)N=NC3=CC4=C(C=C3)C=C(C=C4)S(=O)(=O)O)S(=O)(=O)O + CC(C)C[C@H](NC(=O)[C@H](Cc1ccccc1)NC(=O)c1cnccn1)B(O)O [Bortezomib] (partner 0.002 µM)
Outline: as §1

AT-7519 + AZD7762 = compound: O=C(NC1CCNCC1)c1n[nH]cc1NC(=O)c1c(Cl)cccc1Cl [AT-7519] + NC(=O)Nc1cc(-c2cccc(F)c2)sc1C(=O)N[C@H]1CCCNC1 [AZD7762] (partner 0.2 µM)
Outline: as §1

AT-7519 + Phenformin = compound: O=C(NC1CCNCC1)c1n[nH]cc1NC(=O)c1c(Cl)cccc1Cl [AT-7519] + N=C(N)NC(=N)NCCc1ccccc1 [Phenformin] (partner 250 µM)
Outline: as §1

Cell Line | relative viability ([1]; first compound 0.08 µM) | relative viability ([1]; first compound 0.253 µM) | relative viability ([1]; first compound 0.8 µM) | relative viability ([1]; first compound 2.53 µM) | relative viability ([1]; first compound 8 µM) | relative viability ([2]; first compound 0.08 µM) | relative viability ([2]; first compound 0.253 µM) | relative viability ([2]; first compound 0.8 µM) | relative viability ([2]; first compound 2.53 µM) | relative viability ([2]; first compound 8 µM) | relative viability (AT-7519 + AZD7762; first compound 0.01 µM) | relative viability (AT-7519 + AZD7762; first compound 0.03162 µM) | relative viability (AT-7519 + AZD7762; first compound 0.3162 µM) | relative viability (AT-7519 + AZD7762; first compound 1 µM) | relative viability (AT-7519 + Phenformin; first compound 0.01 µM) | relative viability (AT-7519 + Phenformin; first compound 0.03162 µM) | relative viability (AT-7519 + Phenformin; first compound 0.3162 µM) | relative viability (AT-7519 + Phenformin; first compound 1 µM)
HCC-44 | 1.22 | 1.08 | 1.08 | 1.11 | 0.995 | 0.903 | 0.835 | 0.931 | 0.905 | 0.9 | 0.983 | 0.998 | 1.08 | 1 | 0.15 | 0.199 | 0.154 | 0.205
HCC-827 | 0.926 | 0.813 | 0.826 | 0.876 | 0.785 | 1.06 | 0.95 | 0.948 | 1.02 | 1.03 | 0.215 | 0.17 | 0.21 | 0.237 | 0.457 | 0.437 | 0.341 | 0.246
NCI-H1623 |  |  |  |  |  |  |  |  |  |  |  |  |  |  | 0.583 | 0.567 | 0.668 | 0.557
NCI-H2347 | 0.691 | 0.621 | 0.59 | 0.408 | 0.729 | 1.23 | 0.962 | 0.982 | 0.98 | 0.955 | 0.625 | 0.843 | 0.725 | 0.469 | 0.281 | 0.388 | 0.582 | 0.185
PC-14 | 0.815 | 0.83 | 0.816 | 0.745 | 0.752 | 0.923 | 0.839 | 0.906 | 0.888 | 0.856 | 0.416 | 0.261 | 0.38 | 0.44 | 0.519 | 0.566 | 0.424 | 0.314
NCI-H1651 | 0.66 | 0.561 | 0.566 | 0.535 | 0.546 | 0.942 | 0.903 | 0.894 | 0.963 | 0.755 | 0.531 | 0.49 | 0.536 | 0.561 | 0.298 | 0.344 | 0.36 | 0.325
HARA | 0.631 | 0.383 | 0.565 | 0.493 | 0.551 | 1.14 | 1.08 | 1.03 | 1.13 | 1.01 | 0.221 | 0.301 | 0.263 | 0.415 | 0.415 | 0.52 | 0.503 | 0.358
NCI-H1650 | 0.577 | 0.447 | 0.594 | 0.633 | 0.373 | 0.196 | 0.212 | 0.22 | 0.193 | 0.202 |  |  |  |  | 0.466 | 0.427 | 0.292 | 0.15
NCI-H1395 | 0.674 | 0.596 | 0.554 | 0.73 | 0.551 |  |  |  |  |  | 0.359 | 0.391 | 0.425 | 0.348 | 0.463 | 0.518 | 0.443 | 0.407
LU99A | 0.534 | 0.445 | 0.63 | 0.494 | 0.53 | 1.27 | 1.13 | 1.04 | 0.986 | 1.29 | 0.329 | 0.29 | 0.538 | 0.342 | 0.826 | 0.769 | 0.802 | 0.724
NCI-H1355 | 0.646 | 0.619 | 0.615 | 0.605 | 0.481 | 1.22 | 1.22 | 1.15 | 1.23 | 1.29 | 0.71 | 0.703 | 0.902 | 0.907 | 0.455 | 0.461 | 0.371 | 0.458
HCC-78 | 0.437 | 0.471 | 0.458 | 0.437 | 0.434 | 0.513 | 0.469 | 0.475 | 0.417 | 0.526 | 0.609 | 0.636 | 0.616 | 0.815 | 0.712 | 0.604 | 0.596 | 0.662
NCI-H1563 |  |  |  |  |  | 0.848 | 0.952 | 0.959 | 0.857 | 0.994 |  |  |  |  | 0.66 | 0.625 | 0.645 | 0.651
HCC-15 | 0.818 | 0.857 | 0.779 | 0.826 | 0.827 | 1.16 | 1.02 | 1.02 | 0.985 | 0.992 | 1.18 | 1.37 | 1.17 | 1.14 | 0.468 | 0.422 | 0.401 | 0.241
EKVX | 0.757 | 0.694 | 0.643 | 0.76 | 0.656 | 1.15 | 0.781 | 0.987 | 1.11 | 1.01 | 0.798 | 0.608 | 0.822 | 0.719 | 0.246 | 0.242 | 0.259 | 0.23
NCI-H2087 | 0.69 | 0.804 | 0.795 | 0.702 | 0.676 | 0.888 | 0.902 | 0.856 | 0.669 | 0.904 | 1.48 | 1.13 | 1.49 | 0.58 | 0.472 | 0.442 | 0.479 | 0.172
LK-2 | 0.308 | 0.333 | 0.292 | 0.263 | 0.178 |  |  |  |  |  | 0.456 | 0.329 | 0.347 | 0.19 | 0.278 | 0.482 |  | 0.307
NCI-H1437 | 0.901 | 0.857 | 0.851 | 0.923 | 0.841 | 0.578 | 0.509 | 0.483 | 0.414 | 0.4 | 0.989 | 1.09 | 1.07 | 0.982 | 0.322 | 0.328 | 0.292 | 0.194
COR-L23 | 0.484 | 0.396 | 0.418 | 0.449 | 0.599 | 0.982 | 0.953 | 1.06 | 0.962 | 1.03 |  |  |  |  | 0.459 | 0.412 | 0.287 | 0.144
ABC-1 | 0.875 | 1.12 | 0.943 | 1.49 | 0.982 | 0.277 | 0.393 | 0.281 | 0.246 | 0.226 | 0.922 | 0.782 | 0.952 | 0.907 | 0.245 | 0.242 | 0.234 | 0.164
